These results are taken from patent US7473790B2 (Pfizer Inc., priority 2003, dated 2009).

As a reminder, the IC50 is the midpoint of a concentration-inhibition curve.

For the assay, the target named is T1, HCV polymerase (Hepatitis C virus genotype 1b, UniProt P26663).
T1 construct: 2.5 pmoles (0.15 μg) HCV polymerase protein in a final volume of 75 μL
T1 sequence (P26663 2420-3010): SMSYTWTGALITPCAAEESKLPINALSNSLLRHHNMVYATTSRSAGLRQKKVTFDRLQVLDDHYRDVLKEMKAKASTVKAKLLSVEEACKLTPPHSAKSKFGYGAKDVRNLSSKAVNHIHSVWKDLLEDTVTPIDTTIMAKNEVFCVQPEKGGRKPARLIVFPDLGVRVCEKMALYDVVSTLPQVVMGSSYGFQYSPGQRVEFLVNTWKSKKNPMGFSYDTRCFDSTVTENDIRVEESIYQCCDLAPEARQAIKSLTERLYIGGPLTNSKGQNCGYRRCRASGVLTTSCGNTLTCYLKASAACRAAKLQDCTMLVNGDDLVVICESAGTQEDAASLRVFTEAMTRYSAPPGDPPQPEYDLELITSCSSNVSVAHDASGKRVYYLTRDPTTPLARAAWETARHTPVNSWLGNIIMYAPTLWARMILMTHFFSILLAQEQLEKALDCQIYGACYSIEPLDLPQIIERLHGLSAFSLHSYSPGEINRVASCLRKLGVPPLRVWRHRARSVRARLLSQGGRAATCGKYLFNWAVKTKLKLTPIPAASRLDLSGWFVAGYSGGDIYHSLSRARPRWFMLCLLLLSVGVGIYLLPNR
The experiment in a line: HCV polymerase primer/template-directed transcription assay (32P-GTP incorporation, filter binding). To be noted: recombinant HCV polymerase; 30 minutes at 30° C.; concentration giving 50% inhibition of polymerase-directed transcription; read-out: IC50. The class given is biochemical. As to the method:
The compounds described herein were tested for activity with HCV polymerase. Recombinant HCV polymerase was tested for its ability to perform primer/template-directed transcription in assays that contained 30 mM tris-HCl pH 7.2, 10 mM MgCl2, 20 mM NaCl, 1 mM Dithiothreitol (DTT), 0.05% Tween-20, 1% glycerol, 5 pmoles biotin-dG12 (primer), 0.5 pmoles poly(rC)300 (template), 1 μM GTP, 0.1-0.3 uCi α-^32P-GTP, and 2.5 pmoles (0.15 μg) HCV polymerase protein in a final volume of 75 μL. Reactions were initiated by addition of enzyme and incubated 30 minutes at 30° C. Reactions were stopped by addition of 33 mM EDTA, and polynucleotide products were collected by filtration through Diethylaminoethyl (DE) Filtermat papers (Wallac). Unincorporated triphosphate was removed by washing the filters with 5% dibasic sodium phosphate. The filters were counted in a Packard Tri-Lux Microbeta scintillation counter (Packard Bioscience, Meriden, Conn.). Compounds to be tested were added at various concentrations, e.g., 1 μm to 50 μm, from stocks in 10% DMSO-water (final DMSO is 1% in reaction).
IC50 values were estimated from the primary cpm data (collected in triplicate) using the formula: cpm (I)=cpm(no inhibitor)(1−([I]/([I]+IC50))). An IC50 value represents the concentration (in μM) of a compound that provides 50% inhibition of polymerase-directed transcription in the above assay. A percent inhibition value is expressed for a compound where it was impractical to calculate an IC50 value with available data. If the IC50 estimated by the above equation was less than 200 nM, it was recalculated using the following equation, which takes into account the enzyme concentration (30 nM) in the assay: cpm(I)=cpm(no inhibitor)(1−((((I+IC50+30e−9)−sqrt(((I+IC50+30e−9)^2)−4×30e−9×I)))/((2)(30e−9))). Curve fitting was performed using the program KaleidaGraph (Synergy Software, Reading, Pa.).
For the molecule `CCc1ccc(O)c(CCC2(C3CCCC3)CC(O)=C(Cc3nc4ncc(Cl)cn4n3)C(=O)O2)c1` (single isomer, unassigned; enantiomer 1) [A(171), Enantiomer 1 of 3-(6-Chloro-[1,2,4]triazolo[1,5-a]pyrimidin-2-ylmethyl)-6-cyclopentyl-6-[2-(5-ethyl-2-hydroxy-phenyl)-ethyl]-4-hydroxy-5,6-dihydro-pyran-2-one], the IC50 was determined as 4 nM.

Consider `CCc1ccc(O)c(CCC2(C3CCCC3)CC(O)=C(Cc3nc4ncc(C)cn4n3)C(=O)O2)c1` (single isomer, unassigned; enantiomer 1) [A(174), Enantiomer 1 of 6-Cyclopentyl-6-[2-(5-ethyl-2-hydroxy-phenyl)-ethyl]-4-hydroxy-3-(6-methyl-[1,2,4]triazolo[1,5-a]pyrimidin-2-ylmethyl)-5,6-dihydro-pyran-2-one], for which the concentration for half-maximal inhibition (IC50) stood at 6 nM.

Take `CCc1ccc(O)c(CCC2(C3CCCC3)CC(O)=C(Cc3nc4nc(C)cc(C)n4n3)C(=O)O2)c1` (single isomer, unassigned; enantiomer 2) [A(168), Enantiomer 2 of 6-Cyclopentyl-3-(5,7-dimethyl-[1,2,4]triazolo[1,5-a]pyrimidin-2-ylmethyl)-6-[2-(5-ethyl-2-hydroxy-phenyl)-ethyl]-4-hydroxy-5,6-dihydro-pyran-2-one]: the IC50 turned out to be 9 nM.

`CCc1ccc(O)c(CCC2(C3CCCC3)CC(O)=C(Cc3nc4ncc(Cl)cn4n3)C(=O)O2)c1` (single isomer, unassigned; enantiomer 2) [A(172), Enantiomer 2 of 3-(6-Chloro-[1,2,4]triazolo[1,5-a]pyrimidin-2-ylmethyl)-6-cyclopentyl-6-[2-(5-ethyl-2-hydroxy-phenyl)-ethyl]-4-hydroxy-5,6-dihydro-pyran-2-one]: the half-maximal inhibitory concentration (IC50) is 6 nM.

With `CCc1ccc(O)c(CCC2(C3CCCC3)CC(O)=C(Cc3nc4ncc(C)cn4n3)C(=O)O2)c1` (single isomer, unassigned; enantiomer 2) [A(175), Enantiomer 2 of 6-Cyclopentyl-6-[2-(5-ethyl-2-hydroxy-phenyl)-ethyl]-4-hydroxy-3-(6-methyl-[1,2,4]triazolo[1,5-a]pyrimidin-2-ylmethyl)-5,6-dihydro-pyran-2-one], the half-maximal inhibitory concentration (IC50) worked out at 9 nM.

For the molecule `Cc1cc(C)n2nc(CC3=C(O)CC(CCc4ccc(C(C)(C)O)c(F)c4)(C4CCCC4)OC3=O)nc2n1` (single isomer, unassigned; enantiomer a) [A(218), 6-cyclopentyl-3-[(5,7-dimethyl[1,2,4]triazolo[1,5-a]pyrimidin-2-yl)methyl]-6-{2-[3-fluoro-4-(1-hydroxy-1-methylethyl)phenyl]ethyl}-4-hydroxy-5,6-dihydro-2H-pyran-2-one (enantiomer A)], the IC50 amounted to 61 nM.

Take `Cc1cc(C)n2nc(CC3=C(O)CC(CCc4ccc(C(C)(C)O)c(F)c4)(C4CCCC4)OC3=O)nc2n1` (single isomer, unassigned; enantiomer b) [A(219), 6-cyclopentyl-3-[(5,7-dimethyl[1,2,4]triazolo[1,5-a]pyrimidin-2-yl)methyl]-6-{2-[3-fluoro-4-(1-hydroxy-1-methylethyl)phenyl]ethyl}-4-hydroxy-5,6-dihydro-2H-pyran-2-one (enantiomer B)]: the half-maximal inhibitory concentration (IC50) was found to be 88 nM.

For `Cc1cc(C)n2nc(CC3=C(O)CC(CCc4ccc([C@@H](C)O)c(F)c4)(C4CCCC4)OC3=O)nc2n1` (stereo in doubt) [B(114), 6-Cyclopentyl-3-(5,7-dimethyl-[1,2,4]triazolo[1,5-a]pyrimidin-2-ylmethyl)-6-{2-[3-fluoro-4-(1-hydroxy-ethyl)-phenyl]-ethyl}-4-hydroxy-5,6-dihydro-pyran-2-one], the IC50 stood at 16 nM.

`C[C@@H](O)c1ccc(CCC2(C3CCCC3)CC(O)=C(Cc3nc4ncc(Cl)cn4n3)C(=O)O2)cc1F` (stereo in doubt) [B(116), 3-(6-Chloro-[1,2,4]triazolo[1,5-a]pyrimidin-2-ylmethyl)-6-cyclopentyl-6-{2-[3-fluoro-4-(1-hydroxy-ethyl)-phenyl]-ethyl}-4-hydroxy-5,6-dihydro-pyran-2-one]: the IC50 came out at 11 nM.

In the case of `COc1ccc(CCC2(C3CCCC3)CC(O)=C(Cc3nc4nc(C)cc(C)n4n3)C(=O)O2)cc1[C@@H](C)O` (stereo in doubt) [B(120), 6-Cyclopentyl-3-(5,7-dimethyl-[1,2,4]triazolo[1,5-a]pyrimidin-2-ylmethyl)-4-hydroxy-6-{2-[3-(1-hydroxy-ethyl)-4-methoxy-phenyl]-ethyl}-5,6-dihydro-pyran-2-one], the half-maximal inhibitory concentration (IC50) turned out to be 12 nM.

Regarding `CCn1cc(CCC2(C3CCCC3)CC(=O)CC(=O)O2)ccc1=O` (stereo not drawn) [A(01), 6-Cyclopentyl-6-[2-(1-ethyl-6-oxo-1,6-dihydro-pyridin-3-yl)-ethyl]-dihydro-pyran-2,4-dione], the IC50 was found to be 38300 nM.

For `CC(C)(C)c1cc(CCC2(C3CCCC3)CC(=O)CC(=O)O2)ccc1O` (stereo not drawn) [A(02), 6-[2-(3-tert-Butyl-4-hydroxy-phenyl)-ethyl]-6-cyclopentyl-dihydro-pyran-2,4-dione], the IC50 turned out to be 2400 nM.

As for `CCOc1ccc(CCC2(C3CCCC3)CC(=O)CC(=O)O2)cc1C` (stereo not drawn) [A(03), 6-Cyclopentyl-6-[2-(4-ethoxy-3-methyl-phenyl)-ethyl]-dihydro-pyran-2,4-dione], the 50% inhibitory concentration (IC50) worked out at 4300 nM.

As for `Cc1cc(CCC2(C3CCCC3)CC(=O)CC(=O)O2)ccc1OC(C)C` (stereo not drawn) [A(04), 6-Cyclopentyl-6-[2-(4-isopropoxy-3-methyl-phenyl)-ethyl]-dihydro-pyran-2,4-dione], the IC50 came out at 5600 nM.

Take `O=C1CC(=O)OC(CCc2ccc(OCC(F)(F)F)c(Cl)c2)(C2CCCC2)C1` (stereo not drawn) [A(05), 6-{2-[3-Chloro-4-(2,2,2-trifluoro-ethoxy)-phenyl]-ethyl}-6-cyclopentyl-dihydro-pyran-2,4-dione]: the IC50 was found to be 5100 nM.

Turning to `COc1ccc(SCC2(C3CCCC3)CC(=O)CC(=O)O2)cc1` (stereo not drawn) [A(06), 6-Cyclopentyl-6-(4-methoxy-phenylsulfanylmethyl)-dihydro-pyran-2,4-dione], the 50% inhibitory concentration (IC50) is 23500 nM.

Turning to `CC(=O)Nc1ccc(CCC2(C3CCCC3)CC(=O)CC(=O)O2)cc1F` (stereo not drawn) [A(07), N-{4-[2-(2-Cyclopentyl-4,6-dioxo-tetrahydro-pyran-2-yl)-ethyl]-2-fluoro-phenyl}-acetamide], the 50% inhibitory concentration (IC50) amounted to 13400 nM.

Take `COCc1ccc(CCC2(C3CCCC3)CC(=O)CC(=O)O2)cc1F` (stereo not drawn) [A(08), 6-Cyclopentyl-6-[2-(3-fluoro-4-methoxymethyl-phenyl)-ethyl]-dihydro-pyran-2,4-dione]: the IC50 came to 6000 nM.

On to `O=C1CC(=O)OC(CCc2ccc(-c3ccccc3)c(F)c2)(C2CCCC2)C1` (stereo not drawn) [A(09), 6-Cyclopentyl-6-[2-(2-fluoro-biphenyl-4-yl)-ethyl]-dihydro-pyran-2,4-dione], for which the IC50 was 5500 nM.

As to `O=C1CC(=O)OC(CCc2ccc(-c3cc4ccccc4s3)c(F)c2)(C2CCCC2)C1` (stereo not drawn) [A(10), 6-[2-(4-Benzo[b]thiophen-2-yl-3-fluoro-phenyl)-ethyl]-6-cyclopentyl-dihydro-pyran-2,4-dione], the concentration for half-maximal inhibition (IC50) is 8100 nM.

Consider `CNC(=O)c1ccc(CCC2(C3CCCC3)CC(=O)CC(=O)O2)cc1F` (stereo not drawn) [A(11), 4-[2-(2-Cyclopentyl-4,6-dioxo-tetrahydro-pyran-2-yl)-ethyl]-2-fluoro-N-methyl-benzamide], for which the IC50 worked out at 16700 nM.
